In brackets after ≈: the same amount, converted by molar mass.
Assays:
[1] = Hemolytic activity in RBC (unknown origin) assessed as hemolysis; assay type: toxicity, cell-based, Erythrocyte; details: red blood cells (erythrocytes)
Staphylococcus aureus [2] = experiment: Antibacterial activity against Staphylococcus aureus ATCC 29213 assessed as inhibition of bacterial growth by micro-broth dilution assay; assay type: functional
Escherichia coli [3] = experiment: Antibacterial activity against Escherichia coli ATCC 25922 assessed as inhibition of bacterial growth by micro-broth dilution assay; assay type: functional
Enterococcus faecalis = experiment: Antibacterial activity against Enterococcus faecalis assessed as inhibition of bacterial growth by micro-broth dilution assay; assay type: functional
Acinetobacter baumannii = experiment: Antibacterial activity against Acinetobacter baumannii assessed as inhibition of bacterial growth by micro-broth dilution assay; assay type: functional
Pseudomonas aeruginosa [4] = experiment: Antibacterial activity against Pseudomonas aeruginosa ATCC 27853 assessed as inhibition of bacterial growth by micro-broth dilution assay; assay type: functional
Staphylococcus aureus [5] = experiment: Antibacterial activity against Staphylococcus aureus assessed as inhibition of bacterial growth by micro-broth dilution assay; assay type: functional
Staphylococcus aureus [6] = experiment: Antibacterial activity against methicillin resistant Staphylococcus aureus assessed as inhibition of bacterial growth by micro-broth dilution assay; assay type: functional
Klebsiella pneumoniae = experiment: Antibacterial activity against Klebsiella pneumoniae assessed as inhibition of bacterial growth by micro-broth dilution assay; assay type: functional
Escherichia coli [7] = experiment: Antibacterial activity against Escherichia coli assessed as inhibition of bacterial growth by micro-broth dilution assay; assay type: functional
Pseudomonas aeruginosa [8] = experiment: Antibacterial activity against Pseudomonas aeruginosa assessed as inhibition of bacterial growth by micro-broth dilution assay; assay type: functional
Staphylococcus aureus [9] = experiment: Antibacterial activity against Staphylococcus aureus ATCC 25923 assessed as inhibition of bacterial growth by micro-broth dilution assay; assay type: functional

Structure (SMILES)	HC50 [1] [µg/mL]	MIC (Staphylococcus aureus [2]) [µg/mL]	MIC (Escherichia coli [3]) [µg/mL]	MIC (Enterococcus faecalis) [µg/mL]	MIC (Acinetobacter baumannii) [µg/mL]	MIC (Pseudomonas aeruginosa [4]) [µg/mL]	MIC (Staphylococcus aureus [5]) [µg/mL]	MIC (Staphylococcus aureus [6]) [µg/mL]	MIC (Klebsiella pneumoniae) [µg/mL]	MIC (Escherichia coli [7]) [µg/mL]	MIC (Pseudomonas aeruginosa [8]) [µg/mL]	MIC (Staphylococcus aureus [9]) [µg/mL]
O=C1C(=O)N(CC(O)CSc2nc[nH]n2)c2ccccc21 (stereo not drawn)	285	64 (≈ 210 µM)	128 (≈ 421 µM)	64 (≈ 210 µM)	64 (≈ 210 µM)	128 (≈ 421 µM)	128 (≈ 421 µM)	64 (≈ 210 µM)	32 (≈ 105 µM)	64 (≈ 210 µM)	16 (≈ 52.6 µM)	32 (≈ 105 µM)
Cc1ccc(N/N=C2\C(=O)N(CC(O)CSc3nc[nH]n3)c3ccccc32)cc1 (stereo not drawn)	416	8 (≈ 19.6 µM)	32 (≈ 78.3 µM)	2 (≈ 4.9 µM)	16 (≈ 39.2 µM)	8 (≈ 19.6 µM)	32 (≈ 78.3 µM)	16 (≈ 39.2 µM)	32 (≈ 78.3 µM)	32 (≈ 78.3 µM)	64 (≈ 157 µM)	4 (≈ 9.79 µM)
O=C1/C(=N\Nc2ccc([N+](=O)[O-])cc2)c2ccccc2N1CC(O)CSc1nc[nH]n1 (stereo not drawn)	> 512	32 (≈ 72.8 µM)	128 (≈ 291 µM)	64 (≈ 146 µM)	32 (≈ 72.8 µM)	64 (≈ 146 µM)	32 (≈ 72.8 µM)	32 (≈ 72.8 µM)	64 (≈ 146 µM)	64 (≈ 146 µM)	32 (≈ 72.8 µM)	128 (≈ 291 µM)
O=C(O)c1ccc(N/N=C2\C(=O)N(CC(O)CSc3nc[nH]n3)c3ccccc32)cc1 (stereo not drawn)	282	4 (≈ 9.12 µM)	32 (≈ 73 µM)	2 (≈ 4.56 µM)	16 (≈ 36.5 µM)	16 (≈ 36.5 µM)	64 (≈ 146 µM)	4 (≈ 9.12 µM)	2 (≈ 4.56 µM)	8 (≈ 18.2 µM)	64 (≈ 146 µM)	8 (≈ 18.2 µM)
Cc1ccc(N/N=C2\C(=O)N(CC(O)CSc3nccn3C)c3ccccc32)cc1 (stereo not drawn)	358	256 (≈ 607 µM)	128 (≈ 304 µM)	128 (≈ 304 µM)	128 (≈ 304 µM)	256 (≈ 607 µM)	128 (≈ 304 µM)	256 (≈ 607 µM)	128 (≈ 304 µM)	64 (≈ 152 µM)	128 (≈ 304 µM)	128 (≈ 304 µM)
Cn1ccnc1SCC(O)CN1C(=O)C(=O)c2ccccc21 (stereo not drawn)	> 512	64 (≈ 202 µM)	64 (≈ 202 µM)	128 (≈ 403 µM)	64 (≈ 202 µM)	64 (≈ 202 µM)	64 (≈ 202 µM)	128 (≈ 403 µM)	64 (≈ 202 µM)	128 (≈ 403 µM)	64 (≈ 202 µM)	32 (≈ 101 µM)
Cn1nnnc1SCC(O)CN1C(=O)/C(=N\Nc2ccc(C(=O)O)cc2)c2ccccc21 (stereo not drawn)	292	16 (≈ 35.3 µM)	16 (≈ 35.3 µM)	8 (≈ 17.6 µM)	32 (≈ 70.6 µM)	32 (≈ 70.6 µM)	16 (≈ 35.3 µM)	4 (≈ 8.82 µM)	32 (≈ 70.6 µM)	32 (≈ 70.6 µM)	128 (≈ 282 µM)	16 (≈ 35.3 µM)
Cn1nnnc1SCC(O)CN1C(=O)/C(=N\Nc2ccc([N+](=O)[O-])cc2)c2ccccc21 (stereo not drawn)	262	16 (≈ 35.2 µM)	16 (≈ 35.2 µM)	8 (≈ 17.6 µM)	64 (≈ 141 µM)	4 (≈ 8.8 µM)	64 (≈ 141 µM)	8 (≈ 17.6 µM)	16 (≈ 35.2 µM)	64 (≈ 141 µM)	2 (≈ 4.4 µM)	4 (≈ 8.8 µM)
Cn1ccnc1SCC(O)CN1C(=O)/C(=N\Nc2ccccc2)c2ccccc21 (stereo not drawn)	441	128 (≈ 314 µM)	128 (≈ 314 µM)	128 (≈ 314 µM)	128 (≈ 314 µM)	128 (≈ 314 µM)	128 (≈ 314 µM)	128 (≈ 314 µM)	128 (≈ 314 µM)	128 (≈ 314 µM)	256 (≈ 628 µM)	256 (≈ 628 µM)
O=C1/C(=N\Nc2ccc(Cl)cc2)c2ccccc2N1CC(O)CSc1nc[nH]n1 (stereo not drawn)	350	8 (≈ 18.7 µM)	8 (≈ 18.7 µM)	4 (≈ 9.33 µM)	128 (≈ 298 µM)	32 (≈ 74.6 µM)	32 (≈ 74.6 µM)	16 (≈ 37.3 µM)	4 (≈ 9.33 µM)	16 (≈ 37.3 µM)	16 (≈ 37.3 µM)	16 (≈ 37.3 µM)
O=C1/C(=N\Nc2ccccc2)c2ccccc2N1CC(O)CSc1nc[nH]n1 (stereo not drawn)	375	128 (≈ 324 µM)	64 (≈ 162 µM)	32 (≈ 81.1 µM)	128 (≈ 324 µM)	128 (≈ 324 µM)	32 (≈ 81.1 µM)	128 (≈ 324 µM)	128 (≈ 324 µM)	128 (≈ 324 µM)	16 (≈ 40.6 µM)	16 (≈ 40.6 µM)
Cn1ccnc1SCC(O)CN1C(=O)/C(=N\Nc2ccc([N+](=O)[O-])cc2)c2ccccc21 (stereo not drawn)	> 512	128 (≈ 283 µM)	128 (≈ 283 µM)	128 (≈ 283 µM)	64 (≈ 141 µM)	16 (≈ 35.4 µM)	128 (≈ 283 µM)	64 (≈ 141 µM)	32 (≈ 70.7 µM)	32 (≈ 70.7 µM)	256 (≈ 566 µM)	64 (≈ 141 µM)
Cn1ccnc1SCC(O)CN1C(=O)/C(=N\Nc2ccc(Cl)cc2)c2ccccc21 (stereo not drawn)	151	64 (≈ 145 µM)	128 (≈ 290 µM)	4 (≈ 9.05 µM)	16 (≈ 36.2 µM)	32 (≈ 72.4 µM)	16 (≈ 36.2 µM)	128 (≈ 290 µM)	2 (≈ 4.53 µM)	32 (≈ 72.4 µM)	64 (≈ 145 µM)	256 (≈ 579 µM)
Cn1nnnc1SCC(O)CN1C(=O)C(=O)c2ccccc21 (stereo not drawn)	335	64 (≈ 200 µM)	16 (≈ 50.1 µM)	64 (≈ 200 µM)	64 (≈ 200 µM)	32 (≈ 100 µM)	32 (≈ 100 µM)	64 (≈ 200 µM)	16 (≈ 50.1 µM)	64 (≈ 200 µM)	64 (≈ 200 µM)	128 (≈ 401 µM)

— ChEMBL document CHEMBL5338704, “Discovery of novel phenylhydrazone-based oxindole-thiolazoles as potent antibacterial agents toward Pseudomonas aeruginosa” (Eur J Med Chem, 2022)
